Entries after “also recorded” stand apart in the source; their conditions may differ.
Experiments:
SMA motor neurons = assay: TUNEL staining of degenerating primary spinal motor neurons cultured from Δ7 SMA mice; assay type: cell-based, mouse; details: 300 nM applied at 3 DIV, assayed on 6 DIV
Excerpt: FIGS. 4A-4D: Mitigating aberrant Cdk5 activation ameliorates the degeneration of motor neurons from SMA mice. (A-B) Primary spinal motor neurons from SMA mice cultured 6 days in vitro (6 DIV) were stained by antibodies recognizing motor neuron marker Isl1 (magenta in A, B) and pan-neuronal marker TuJ1 (green in A). DAPI nuclear staining marks all cells in the culture. (C) Western blot analysis of Cdk5 knockdown in motor neurons treated with shRNA. […] Motor neurons were infected with lentivirus on 4 DIV and cultured for another 3 days before Western blot analysis. Two examples of Cdk5 shRNA knockdown were shown, with the expression of GAPDH as loading control. (D) Quantification of TUNEL+ degenerating motor neurons from WT and SMA mice. […]
Human SMA iPSC and Mouse Motor Neuron Culture. […] Cell death was detected by the in situ cell death detection TMR red TUNEL (Terminal Transferase dUTP Nick End Labeling) kit. […]
Mitigating Aberrant Cdk5 Activation Reduces the Degeneration of SMA Mouse Motor Neurons. Experiments were conducted during development of embodiments herein to determine whether reducing aberrant Cdk5 activation in SMA conditions serve to ameliorate motor neuron degeneration; the degeneration of motor neurons cultured from Δ7 SMA mice and control mice by TUNEL staining was monitored. […]

SMA iPSC motor neurons [1] = assay: iPSC motor neuron degeneration measured by TUNEL; assay type: cell-based, human; details: 300 nM
Protocol: (§1) Calpeptin (10 μM) (A) was used to inhibit calpain activity, and 300 nM BML259 (B) was used to inhibit Cdk5 activity in control and SMA iPSC motor neurons. Data are from four independent experiments and are mean±SEM. ** p<0.01, *** p<0.001, Student's t test. […] Levels of different mRNA in each sample are calculated as relative to gapdh mRNA. The level of gapdh mRNA is presented as relative to the average of four samples. The measurement of each sample was repeated three times and four sets of mice were used. Results are mean±SEM. ** p<0.01, Student's t test.
(§2) Human SMA iPSC and Mouse Motor Neuron Culture. Human iPSCs were generated and differentiated as described in the Examples. Briefly, primary fibroblasts were isolated from de-identified type I SMA patients and their unaffected relatives, infected with lentiviral constructs expressing OCT4, SOX2, NANOG, and LIN28 or episomally expressed reprogramming plasmids to generate iPSCs. Retinoic acid, sonic hedgehog, cAMP, ascorbic acid, brain-derived neurotrophic factor (BDNF) and glial cell line-derived neurotrophic factor (GDNF) were used to induce iPSC spheres to differentiate into motor neurons. […] Cell death was detected by the in situ cell death detection TMR red TUNEL (Terminal Transferase dUTP Nick End Labeling) kit. […]

[2] = test system: human SMA iPSC-derived motor neurons; assay: Degeneration of human SMA iPSC-derived motor neurons (TuJ1 and Isl1-positive motor neurons as percentage of DAPI positive cells); assay type: cell-based; details: week 3 to week 6 in culture
Excerpt: FIGS. 8A-8M: Inhibition of Cdk5 signaling pathway decreases the degeneration of human SMA iPSC-derived motor neurons. (A-L) Immunostaining of human iPSC-derived motor neurons with antibodies recognizing neuronal marker TuJ1 (green in A-L), motor neuron marker Isl1 (red in A-L), and nucleus marker DAPI (blue in A-L). […] (M) Quantification of TuJ1 and Isl1-positive motor neurons as a percentage of all DAPI positive cells in a human iPSC model of SMA treated with inhibitors of Cdk5 signaling. […] Data are from four independent experiments and are mean±SEM. ** P<0.01, *** p<0.001, **** P<0.0001, Student's t test.
as §2

SMA motor neuron = assay: Dosage effect of BML259 on primary mouse motor neurons: toxic effect (cell morphology and viability, bright field microscope); assay type: cell-based; details: two days
Excerpt: (§3) Human SMA iPSC and Mouse Motor Neuron Culture. Human iPSCs were generated and differentiated as described in the Examples. Briefly, primary fibroblasts were isolated from de-identified type I SMA patients and their unaffected relatives, infected with lentiviral constructs expressing OCT4, SOX2, NANOG, and LIN28 or episomally expressed reprogramming plasmids to generate iPSCs. Retinoic acid, sonic hedgehog, cAMP, ascorbic acid, brain-derived neurotrophic factor (BDNF) and glial cell line-derived neurotrophic factor (GDNF) were used to induce iPSC spheres to differentiate into motor neurons. Primary neurons from mouse spinal cords were cultured in Neurobasal (Life Technologies) supplemented with B27 (Life Technologies) as described. Briefly, spinal cords from E12.5 mouse embryos were dissected out and dissociated with 0.25% trypsin. After enriching motor neurons with Optiprep density gradient centrifugation and BSA cushion, cells were seeded on glass cover slips coated with 20 μg/ml Poly-L-Lysine (PLL) (Sigma) and 8 μg/ml Laminin (Sigma), and grown in the presence of […] (PeproTech). Cell death was detected by the in situ cell death detection TMR red TUNEL (Terminal Transferase dUTP Nick End Labeling) kit. Cdk5 inhibitor BML259 (300 nM) (Cayman Chemical) and calpain inhibitor Calpeptin (10 μM) (Tocris Bioscience) were applied from week 3 to 6 into iPSC motor neuron medium to inhibit Cdk5 signaling.
(§4) Different concentrations of Cdk5 inhibitor BML259 were applied on primary motor neurons from wild type and SMA mice. After two days, treated and untreated cells were compared to identify potential toxic effects of causing additional cell death by checking cell morphology and viability using a bright field microscope.

WT motor neuron = assay: as above; assay type: cell-based; details: two days
Excerpt: as §3, §4

[3] = test system: SMA non-integrating iPSC-derived motor neurons; assay: Motor neuron degeneration in non-integrating iPSC SMA model (Isl1+ and TuJ1+ motor neurons as percentage of DAPI-positive cells); assay type: cell-based, human; details: 10 μM
Excerpt: FIGS. 9A-C: (A) The increase of Cdk5 kinase activity in E18.5 SMA mouse spinal cord is not significant. Endogenous Cdk5 was immunoprecipitated from spinal cord lysates of E18.5 WT and SMA mice and measured kinase activity of phosphorylating Histone H1 with ^32P-γ-ATP. The same levels of Cdk5 and purified Histone H1 used in kinase assay reactions were monitored by Western blotting. Data are mean±SEM, Student's t test (n=12, P=0.0875). […] Endogenous Cdk5 was immunoprecipitated from motor neurons differentiated from WT and SMA non-integrating iPSCs. Kinase activities were quantified by the phosphorylation of Histone H1 with ^32P-γ-ATP. The same levels of Cdk5 and Histone H1 were monitored by Western blot. Data are mean±SEM, Student's t test (n=12, P<0.0001). […] Calpain inhibitor Calpeptin (10 μM) was applied to WT and SMA non-integrating iPSC-derived motor neurons. The number of Isl1+ and TuJ1+motor neurons as a percentage of all DAPI-positive cells was quantified from 1490 motor neurons in four independent experiments and are mean±SEM. ** p=0.0045, Student's t test.
Human SMA iPSC and Mouse Motor Neuron Culture. Human iPSCs were generated and differentiated as described in the Examples. […] Cell death was detected by the in situ cell death detection TMR red TUNEL (Terminal Transferase dUTP Nick End Labeling) kit. […]

SMA iPSC motor neurons [4] = assay: iPSC motor neuron degeneration measured by choline acetyltransferase (ChAT) staining; assay type: cell-based, human; details: 10 μM
Protocol: as §1, §2

| SMILES | TUNEL+ degenerating motor neurons from SMA mice (SMA motor neurons) | iPSC motor neuron degeneration by TUNEL (SMA iPSC motor neurons [1]) | Degeneration of motor neurons (TuJ1 and Isl1-positive, % of DAPI positive cells) in human SMA iPSC culture ([2]; 300 nM) | Toxic Effect on SMA motor neuron (SMA motor neuron; 50 nM) | Toxic Effect on SMA motor neuron (SMA motor neuron; 150 nM) | Toxic Effect on SMA motor neuron (SMA motor neuron; 300 nM) | Toxic Effect on SMA motor neuron (SMA motor neuron; 450 nM) | Toxic Effect on SMA motor neuron (SMA motor neuron; 600 nM) | Toxic Effect on WT motor neuron (WT motor neuron; 50 nM) | Toxic Effect on WT motor neuron (WT motor neuron; 150 nM) | Toxic Effect on WT motor neuron (WT motor neuron; 300 nM) | Toxic Effect on WT motor neuron (WT motor neuron; 450 nM) | Toxic Effect on WT motor neuron (WT motor neuron; 600 nM) | Degeneration of motor neurons (TuJ1 and Isl1-positive, % of DAPI positive cells) in human SMA iPSC culture ([2]; 10 μM) | Motor neuron degeneration in non-integrating iPSC SMA model [3] | iPSC motor neuron degeneration by ChAT staining (SMA iPSC motor neurons [4]) |
| --- | --- | --- | --- | --- | --- | --- | --- | --- | --- | --- | --- | --- | --- | --- | --- | --- |
| CC(C)c1cnc(NC(=O)Cc2ccccc2)s1 [BML259, N-(5-isopropyl-thiazol-2-yl)phenylacetamide] | significantly reduced the degeneration of SMA motor neurons | reduces iPSC motor neuron degeneration | alleviated the degeneration of Isl1-positive motor neurons; also recorded: significantly reduces the degeneration of motor neurons | no | no | no | strong | very strong | no | no | no | weak | strong | – | – | – |
| CCCC[C@@H](C=O)NC(=O)[C@H](CC(C)C)NC(=O)OCc1ccccc1 [Calpeptin] | – | – | – | – | – | – | – | – | – | – | – | – | – | alleviated the degeneration of Isl1-positive motor neurons; also recorded: significantly reduces the degeneration of motor neurons | significantly reduces motor neuron degeneration | reduces iPSC motor neuron degeneration |

Reference: patent publication US20250114368A1, “COMPOSITIONS AND METHODS RELATING TO PEDIATRIC NEUROMUSCULAR DISEASES AND NEUROGENERATIVE DISORDERS” (Ann and Robert H. Lurie Children's Hospital of Chicago, priority 2023, published 2025)
